This note sets out measurements from patent US20220306640A1, “HYDANTOIN DERIVATIVE” (ONO PHARMACEUTICAL CO., LTD., priority 2019, published 2022).

Where a name gives a salt, the structure may show the parent alone.

Assay [1] deals with T1, DDR1 phosphorylation in T-47D (ATCC, HTB-133) cells (Homo sapiens, UniProt Q08345).
T1 construct: host or cells: T-47D
The assay can be described thus: Measurement of DDR1 phosphorylation suppression rate by using T-47D cells (p-DDR1 ELISA). It counts as cell-based. The note with it: collagen Type I 10 μg/ml, p-DDR1 (panTyr) ELISA. The procedure: Biological Example 2: Measurement of DDR1 Phosphorylation Suppression Rate by Using T-47D (ATCC, HTB-133) cells
T-47D cells should be in culture for at least 7 days before using in the assay.
Cell culture medium: RPMI 1640 (HyClone) containing 10% Heat-FBS (HyClone) was prepared.
Assay medium: RPMI 1640 containing 0.1% BSA (solarbio) was prepared.
Collagen Type I (rat tail) solution: Assay medium containing 200 μg/mL Collagen I, rat tail (Gibco) was prepared.
Cell lysis buffer: a solution containing IX cell lysis buffer (CST) and 1× protease and phosphatase inhibitor cocktail (Thermofisher) was prepared by using ddH2O.
• 1. Collect cells into tubes and centrifuge at 1200 rpm for 5 min, at room temperature. Re-suspend the cells in cell culture medium pre-warmed to room temperature. • 2. Count cells and suspend at a density of 2×10^5/ml of cell culture medium. Plate the cells at 100 μL per well (Corning 3599 96-well plate, 2×10^4 cells per well final), mixing the cells well between each draw of the pipettor. • 3. Put lid on cell plate and place into the incubator at 37° C., 5% CO2 • 4. Culture cell overnight
• 1. Remove the plate from the incubator • 2. Cell medium is replaced with the 90 μL Assay medium.
• 1. Compound plates are pre-titrated using DMSO (10-fold dilution for 6 points) • 2. Dilute test compound using assay medium; Transfer 1 μL compound to other 96 well plate and then add 49 μL assay medium to each well (50 fold dilution). • 3. Add 5 μL the diluted test compound solution to the appropriate wells by pipettor. Compound final concentration is start from […] and DMSO final concentration is 0.1 • 4. Tap the plates gently to mix in compound. Reseal the plate with a lid and place in the incubator again, for 24 h.
• 1. Diluted collagen Type I in assay medium to the 200 μg/ml concentration • 2. Using the pipettor adds 5 μL of 200 μg/mL collagen Type I solution to the cell plate (compound well and High control well, collagen final conc. is 10 μg/ml). Add assay medium buffer to the control wells (low control well) • 3. Reseal the plate with a lid and place in the incubator. Incubate 24 h for collagen type I
• 1. After incubation, add 100 µL per well Cell lysis buffer. • 2. Incubate 30 min on ice, then freezing to −80° C. to get the fully cell lysates. • 3. Transfer cell lysates to new plate • 4. Centrifuge for 30 min (×4000 rpm) at 4° C. Then transfer the supernatant to a new plate.
p-DDR1 (panTyr) ELISA kit (CST) was used in the study. The measurement was carried out according to the attached instruction.
(§1) The inhibition rate (%) in the test compound group was calculated based on the following mathematical formula.
% inhibition=100−100*(assay value of test compound−A)/(B−A) [Math. 2]
A: average value of low control group B: average value of high control group Values of 50% inhibition rate (IC50 values) of the test compound were calculated from the inhibition curve based on the inhibition rate of the test compounds in each concentration.
A general note: ELISA stands for enzyme-linked immunosorbent assay.

The target in assay [2] is T2, DDR1 (Homo sapiens, UniProt Q08345).
T2 construct: purchased Invitrogen
T2 sequence (Q08345 19-913): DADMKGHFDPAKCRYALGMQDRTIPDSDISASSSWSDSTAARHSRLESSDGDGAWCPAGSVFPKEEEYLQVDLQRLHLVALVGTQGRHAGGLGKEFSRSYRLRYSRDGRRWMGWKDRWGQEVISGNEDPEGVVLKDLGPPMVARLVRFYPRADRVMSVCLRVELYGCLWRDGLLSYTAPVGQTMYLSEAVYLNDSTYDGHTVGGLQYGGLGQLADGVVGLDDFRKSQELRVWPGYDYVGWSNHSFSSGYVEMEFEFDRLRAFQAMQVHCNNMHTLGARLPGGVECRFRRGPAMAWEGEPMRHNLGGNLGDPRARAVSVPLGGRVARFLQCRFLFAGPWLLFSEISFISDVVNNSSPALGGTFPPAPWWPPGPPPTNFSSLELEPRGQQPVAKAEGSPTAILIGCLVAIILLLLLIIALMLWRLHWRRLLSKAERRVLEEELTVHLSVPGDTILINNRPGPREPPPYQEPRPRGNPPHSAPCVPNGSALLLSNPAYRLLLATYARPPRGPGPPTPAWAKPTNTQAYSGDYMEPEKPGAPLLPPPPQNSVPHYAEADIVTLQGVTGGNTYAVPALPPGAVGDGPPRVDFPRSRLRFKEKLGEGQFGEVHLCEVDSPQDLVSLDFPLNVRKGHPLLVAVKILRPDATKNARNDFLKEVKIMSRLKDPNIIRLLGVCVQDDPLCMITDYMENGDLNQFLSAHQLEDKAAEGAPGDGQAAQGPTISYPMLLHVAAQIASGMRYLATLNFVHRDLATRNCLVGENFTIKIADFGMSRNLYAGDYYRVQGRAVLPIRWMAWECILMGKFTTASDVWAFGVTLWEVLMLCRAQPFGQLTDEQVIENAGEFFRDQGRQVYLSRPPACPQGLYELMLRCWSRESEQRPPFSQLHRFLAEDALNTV
Nature of the assay: Measurement of DDR1 inhibitory activity (LanthaScreen system, in vitro test). The class given is binding. As to conditions: GST-DDR1, Kinase tracer 178. Here is the method: Biological Experiment Example 1: Measurement of an DDR1 Inhibitory Activity (In Vitro Test)
An DDR1 enzyme inhibitory activity was measured by using LanthaScreen (registered trademark) system (Invitrogen) based on the attached instruction. The reagents used are shown below.
Assay buffer: 5× Kinase buffer A (Invitrogen) was diluted 5-fold with ddH2O.
1× Kinase Buffer A: 50 mmol/L HEPES pH 7.5, 10 mmol/L MgCl2, 1 mmol/L EGTA, 0.01% Brij-35.
2×DDR1 Solution: a solution containing […] GST-DDR1 (Invitrogen) was prepared by using Assay buffer.
2× Tracer/antibody solution: a solution containing 20 nmol/L Kinase tracer 178 (Invitorgen) and […] Eu-Anti-GST Antibody (Invitorogen) was prepared by using Assay buffer. Test compound solution: a solution containing a test compound of 2-fold concentration with respect to the final concentration was prepared by 50-fold diluting a DMSO solution of test compound of each concentration with the Assay buffer.
• 1 Add 5 μL 2×DDR1 Solution to proxiplate (PerkinElmer) • 2 Add 5 μL test compound solution to proxiplate • 3 Incubate for 15 min at RT • 4 Add 5 μL 2× Tracer/Antibody solution to all well Incubate 1 h at RT • 6 Read LANCE Eu on Envision (PerkinElmer) (Ex: 320 nm/Em 665 nm & 615 nm)
In the low control group, 5 μL Assay buffer was added instead of 5 μL 2×DDR1 Solution and the final 1% DMSO solution was added instead of test compound solution.
In the high control group, the final 1% DMSO solution was added instead of test compound solution.
as §1
% inhibition=100−100*(assay value of test compound−A)/(B−A) [Math. 1]
A: average value of low control group B: average value of high control group
Values of 50% inhibition rate (IC50 values) of the test compound were calculated from the inhibition curve based on the inhibition rate of the test compounds in each concentration.
For orientation: In TR-FRET formats the signal depends on donor and acceptor labels being close together.

T1 sequence (Q08345 19-913): as above

Regarding `C=Cc1cc(N2C(=O)CN(c3cncc(C(F)(F)F)c3)C2=O)ccc1Nc1ncnc2cc(OC)cc(F)c12` [Example 7(6), 3-{4-[(5-fluoro-7-methoxy-4-quinazolinyl)amino]-3-vinylphenyl}-1-[5-(trifluoromethyl)-3-pyridinyl]-2,4-imidazolidinedione], the IC50 (as a rule, the concentration at which inhibition is half-maximal) worked out at 2 nM in assay [1] and 3 nM in assay [2].
`Nc1nccc(Nc2ccc(N3C(=O)CN(c4cccc(OC(F)(F)F)c4)C3=O)cc2Br)c1N` [Example 2(163), 3-{3-bromo-4-[(2,3-diamino-4-pyridinyl)amino]phenyl}-1-[3-(trifluoromethoxy)phenyl]-2,4-imidazolidinedione]: in assay [1], half-maximal inhibition (IC50) was put at 6 nM.
Regarding `COc1ccc2c(O[C@H]3CC[C@H](N4C(=O)CN(c5cncc(C(F)(F)F)c5)C4=O)CC3)ncnc2c1` [Example 2(19), 3-{trans-4-[(7-methoxy-4-quinazolinyl)oxy]cyclohexyl}-1-[5-(trifluoromethyl)-3-pyridinyl]-2,4-imidazolidinedione], the IC50 in assay [1] stood at 1 nM; in assay [2], 3 nM.
For `O=C1CN(c2cc(F)cc(C(F)(F)F)c2)C(=O)N1[C@H]1CC[C@H](Oc2cnc3ccsc3c2)CC1` [Example 2(125), 1-[3-fluoro-5-(trifluoromethyl)phenyl]-3-[trans-4-(thieno[3,2-b]pvridin-6-yloxy)cyclohexyl]-2,4-imidazolidinedione] the same measures were 5 nM and 20 nM.
For the compound `CC(C)c1cc(N2C(=O)CN(c3ccc(CN4CCN(C)CC4)c(C(F)(F)F)c3)C2=O)ccc1Oc1ccnc(N)n1` [Example 3(78), 3-{4-[(2-amino-4-pyrimidinyl)oxy]-3-isopropylphenyl}-1-{4-[(4-methyl-1-piperazinyl)methyl]-3-(trifluoromethyl)phenyl}-2,4-imidazolidinedione], the IC50 was 2 nM in assay [1] and 4 nM in assay [2].
As for `CCc1cc(N2CCN(c3cccc(C(F)(F)F)c3)C2=O)ccc1Oc1ccnc(N)n1` [Example 4(1), 1-{4-[(2-amino-4-pyrimidinyl)oxy]-3-ethylphenyl}-3-[3-(trifluoromethyl)phenyl]-2-imidazolidinone], the values for the IC50 in assay [1] and in assay [2] were 1 nM and 3 nM, respectively.
As for `Cc1cc(Oc2ccnc(N)n2)ccc1N1C(=O)CN(c2cc(F)cc(C(F)(F)F)c2)C1=O` [Example 3(111), 3-{4-[(2-amino-4-pyrimidinyl)oxy]-2-methylphenyl}-1-[3-fluoro-5-(trifluoromethyl)phenyl]-2,4-imidazolidinedione], the IC50 in assay [1] and in assay [2] was 1 nM each time.
For `CCc1cc(N2C(=O)CN(c3cc(C(C)(C)C(F)(F)F)on3)C2=O)ccc1Oc1ccnc(N)n1` [Example 3(101), 3-{4-[(2-amino-4-pyrimidinyl)oxy]-3-ethylphenyl}-1-[5-(1,1,1-trifluoro-2-methyl-2-propanyl)-1,2-oxazol-3-yl]-2,4-imidazolidinedione], the IC50 in assay [1] amounted to 2 nM; in assay [2], 3 nM.
In turn, `COc1ccc2c(CN3CCC(N4C(=O)CN(c5cncc(C(F)(F)F)c5)C4=O)CC3)ccnc2c1` [Example 10, 3-{1-[(7-methoxy-4-quinolinyl)methyl]-4-piperidinyl}-1-[5-(trifluoromethyl)-3-pyridinyl]-2,4-imidazolidinedione] gave an IC50 in assay [2] of 60 nM.
Turning to `O=C1CN(c2cncc(C(F)(F)F)c2)C(=O)N1C12CCC(Oc3ncnc4[nH]cc(Cl)c34)(CC1)C2` [Example 42(2), 3-{4-[(5-chloro-7H-pyrrolo[2,3-d]pyrimidin-4-yl)oxy]bicyclo[2.2.1]hept-1-yl}-1-[5-(trifluoromethyl)-3-pyridinyl]-2,4-imidazolidinedione], in assay [1], the IC50 came to 20 nM.
In turn, `O=C1CN(c2cncc(C(F)(F)F)c2)C(=O)N1[C@H]1CC[C@H](Oc2cnc3[nH]nc(OCCO)c3c2)CC1` [Example 36(7), 3-(trans-4-{[3-(2-hydroxyethoxy)-1H-pyrazolo[3,4-b]pyridin-5-yl]oxy}cyclohexyl)-1-[5-(trifluoromethyl)-3-pyridinyl]-2,4-imidazolidinedione] registered an IC50 in assay [1] of 0.1 nM.
`N#Cc1cncc(N2CC(=O)N(C34CCC(Oc5ncnc6[nH]ccc56)(CC3)C4)C2=O)c1` [Example 42(7), 5-{2,4-dioxo-3-[4-(7H-pyrrolo[2,3-d]pyrimidin-4-yloxy)bicyclo[2.2.1]hept-1-yl]-1-imidazolidinyl}nicotinonitrile]: the IC50 in assay [1] was 200 nM.
For the compound `CC(C)(O)c1cc2c(OC34CCC(N5C(=O)CN(c6cncc(C(F)(F)F)c6)C5=O)(CC3)C4)ncnc2[nH]1` [Example 39, 3-(4-{[6-(2-hydroxy-2-propanyl)-7H-pyrrolo[2,3-d]pyrimidin-4-yl]oxy}bicyclo[2.2.1]hept-1-yl)-1-[5-(trifluoromethyl)-3-pyridinyl]-2,4-imidazolidinedione trifluoroacetate (1:1)], the IC50 in assay [1] stood at 10 nM.
The same measure, in the same setting: the figure for `O=C1CN(c2cncc(C(F)(F)F)c2)C(=O)N1c1ccc(N2CCCc3cnccc32)c(Br)c1` [Example 8, 3-[3-bromo-4-(3,4-dihydro-1,6-naphthyridin-1(2H)-yl)phenyl]-1-[5-(trifluoromethyl)-3-pyridinyl]-2,4-imidazolidinedione] is 70 nM.
On to `CC(c1ccnc2[nH]ccc12)N1CCC(N2C(=O)CN(c3cncc(C(F)(F)F)c3)C2=O)CC1` (centres unmarked) [Example 10(1), 3-{1-[1-(1H-pyrrolo[2,3-b]pyridin-4-yl)ethyl]-4-piperidinyl}-1-[5-(trifluoromethyl)-3-pyridinyl]-2,4-imidazolidinedione], for which, in assay [1], 10 nM corresponded to half-maximal inhibition (IC50).
`CCc1cc(N2C(=O)N(c3cncc(C(F)(F)F)c3)CC2O)ccc1Oc1ccnc2[nH]c(=O)cnc12` (centres unmarked) [Example 5(46), 8-(2-ethyl-4-{5-hydroxy-2-oxo-3-[5-(trifluoromethyl)-3-pyridinyl]-1-imidazolidinyl}phenoxy)pyrido[2,3-b]pyrazin-3(4H)-one] displayed an IC50 in assay [2] of 2 nM.
`N#Cc1cccc(N2CC(=O)N(C34CCC(Oc5ncnc6[nH]ccc56)(CC3)C4)C2=O)c1` [Example 42(9), 3-{2,4-dioxo-3-[4-(7H-pyrrolo[2,3-d]pyrimidin-4-yloxy)bicyclo[2.2.1]hept-1-yl]-1-imidazolidinyl}benzonitrile] returned an IC50 in assay [1] of 20 nM.
Same read-out and setting: the result for `O=C1CN(c2cncc(C(F)(F)F)c2)C(=O)N1C12CCC(Oc3ccnc4[nH]ncc34)(CC1)C2` [Example 43, 3-[4-(1H-pyrazolo[3,4-b]pyridin-4-yloxy)bicyclo[2.2.1]hept-1-yl]-1-[5-(trifluoromethyl)-3-pyridinyl]-2,4-imidazolidinedione] reads 6 nM.
Regarding `C=Cc1cc(N2C(=O)CN(c3cncc(C(F)(F)F)c3)C2=O)ccc1N1CCCc2cnccc21` [Example 8(1), 3-[4-(3,4-dihydro-1,6-naphthyridin-1(2H)-yl)-3-vinylphenyl]-1-[5-(trifluoromethyl)-3-pyridinyl]-2,4-imidazolidinedione], the midpoint of inhibition in assay [2], the IC50, lay at 80 nM.
